# Laboratory results from patent publication US20200268702A1, “METHODS OF TREATING […]” (Amarin Pharmaceuticals Ireland Limited, priority 2013, published 2020).
# Tested on: patients with fasting triglyceride levels >500 mg/dL
# Assay: MARINE study: 12-week placebo-controlled study of AMR101, metabolic syndrome subset
# Type: in vivo, human
# Details: 12 weeks, subjects with metabolic syndrome
# Method: A multi-center, placebo-controlled randomized, double-blind, 12-week study with an open-label extension was performed to evaluate the efficacy and safety of AMR101 in patients with fasting triglyceride levels >500 mg/dL. The primary objective of the study was to determine the efficacy of AMR101 2 g daily and 4 g daily, compared to placebo, in lowering fasting TG levels in patients with fasting TG levels 500 mg/dL and 1500 mg/dL (5.65 mmol/L and 16.94 mmol/L).
# The population for this study was men and women (women of childbearing potential will need to be on contraception or practice abstinence) >18 years of age with a body mass index ≤45 kg/m^2 who were not on lipid-altering therapy or were currently on lipid-altering therapy. Patients currently on statin therapy (with or without ezetimibe) were evaluated by the investigator as to whether this therapy can be safely discontinued at screening, or if it should be continued. If statin therapy (with or without ezetimibe) was to be continued, dose(s) must have been stable […] prior to randomization. Patients taking non-statin, lipid-altering medications (niacin >200 mg/day, fibrates, fish oil, other products containing omega-3 fatty acids, or other herbal products or dietary supplements with potential lipid-altering effects), either alone or in combination with statin therapy (with or without ezetimibe), must have been able to safely discontinue non-statin, lipid-altering therapy at screening.
# Approximately 240 patients were randomized at approximately 50 centers in North America, South America, Central America, Europe, India, and South Africa. The study was a 58- to 60-week, Phase 3, multi-center study consisting of 3 study periods: (1) A 6- to 8-week screening period that included a diet and lifestyle stabilization and washout period and a TG qualifying period; (2) A 12-week, double-blind, randomized, placebo-controlled treatment period; and (3) A 40-week, open-label, extension period.
# After confirmation of qualifying fasting TG values, eligible patients entered a 12-week, randomized, double-blind treatment period. At Visit 4 (Week 0), patients were randomly assigned to 1 of the following treatment groups: • AMR101 2 g daily, • AMR101 4 g daily, or • Placebo.
# Eligible patients were randomly assigned at Visit 4 (Week 0) to receive orally AMR101 2 g daily, AMR101 4 g daily, or placebo for the 12-week double-blind treatment period. AMR101 was provided in 1 g liquid-filled, oblong, gelatin capsules. The matching placebo capsule was filled with light liquid paraffin and contained 0 g of AMR101. During the double-blind treatment period, patients took 2 capsules (AMR101 or matching placebo) in the morning and 2 in the evening for a total of 4 capsules per day. Patients in the AMR101 2 g/day treatment group received 1 AMR101 1 g capsule and 1 matching placebo capsule in the morning and in the evening. Patients in the AMR101 4 g/day treatment group received 2 AMR101 1 g capsules in the morning and evening.
# The primary efficacy variable for the double-blind treatment period was percent change in TG from baseline to Week 12 endpoint. […]
compound,measurement,setting,value
"CC/C=C\C/C=C\C/C=C\C/C=C\C/C=C\CCCC(=O)OCC [AMR101, ethyl eicosapentaenoate]","Apo B, Change from Baseline, %","2 g/day, No statins",2.8%
same,"Apo B, End of Treatment, median (IQR)","2 g/day, No statins",121 mg/dL
same,"Apo B, Median % Change From Baseline vs Placebo","2 g/day, No statins",−1.8%
same,"HDL-C, Change from Baseline, %","2 g/day, No statins",0.0%
same,"HDL-C, End of Treatment, median (IQR)","2 g/day, No statins",26 mg/dL
same,"HDL-C, Median % Change From Baseline vs Placebo","2 g/day, No statins",0.3%
same,"LDL-C, Change from Baseline, %","2 g/day, No statins",1.9%
same,"LDL-C, End of Treatment, median (IQR)","2 g/day, No statins",95 mg/dL
same,"LDL-C, Median % Change From Baseline vs Placebo","2 g/day, No statins",2.8%
same,"Non-HDL-C, Change from Baseline, %","2 g/day, No statins",−1.1%
same,"Non-HDL-C, End of Treatment, median (IQR)","2 g/day, No statins",218 mg/dL
same,"Non-HDL-C, Median % Change From Baseline vs Placebo","2 g/day, No statins",−7.8%
same,"TG, Change from Baseline, %","2 g/day, No statins",−10.1%
same,"TG, End of Treatment, median (IQR)","2 g/day, No statins",586 mg/dL
same,"TG, Median % Change From Baseline vs Placebo","2 g/day, No statins",−17.2%
same,"hsCRP, Change from Baseline, %","2 g/day, No statins",38.0%
same,"hsCRP, End of Treatment, median (IQR)","2 g/day, No statins",2.5 (3.10) mg/L
same,"hsCRP, Median % Change From Baseline vs Placebo","2 g/day, No statins",−7.1%
same,"Apo B, Change from Baseline, %","2 g/day, Statins",−0.9%
same,"Apo B, End of Treatment, median (IQR)","2 g/day, Statins",105 mg/dL
same,"Apo B, Median % Change From Baseline vs Placebo","2 g/day, Statins",−9.1%
same,"HDL-C, Change from Baseline, %","2 g/day, Statins",0.0%
same,"HDL-C, End of Treatment, median (IQR)","2 g/day, Statins",30 mg/dL
same,"HDL-C, Median % Change From Baseline vs Placebo","2 g/day, Statins",4.2%
same,"LDL-C, Change from Baseline, %","2 g/day, Statins",−3.8%
same,"LDL-C, End of Treatment, median (IQR)","2 g/day, Statins",77.5 mg/dL
same,"LDL-C, Median % Change From Baseline vs Placebo","2 g/day, Statins",6.2%
same,"Non-HDL-C, Change from Baseline, %","2 g/day, Statins",10.1%
same,"Non-HDL-C, End of Treatment, median (IQR)","2 g/day, Statins",206 mg/dL
same,"Non-HDL-C, Median % Change From Baseline vs Placebo","2 g/day, Statins",−10.9%
same,"TG, Change from Baseline, %","2 g/day, Statins",14.5%
same,"TG, End of Treatment, median (IQR)","2 g/day, Statins",708 mg/dL
same,"TG, Median % Change From Baseline vs Placebo","2 g/day, Statins",−33.0%
same,"hsCRP, Change from Baseline, %","2 g/day, Statins",14.3%
same,"hsCRP, End of Treatment, median (IQR)","2 g/day, Statins",1.6 (2.20) mg/L
same,"hsCRP, Median % Change From Baseline vs Placebo","2 g/day, Statins",−36.6%
same,"Apo B, Change from Baseline, %","2 g/day, Total",2.5%
same,"Apo B, End of Treatment, median (IQR)","2 g/day, Total",117 mg/dL
same,"Apo B, Median % Change From Baseline vs Placebo","2 g/day, Total",−3.3%
same,"HDL-C, Change from Baseline, %","2 g/day, Total",0.0%
same,"HDL-C, End of Treatment, median (IQR)","2 g/day, Total",28 mg/dL
same,"HDL-C, Median % Change From Baseline vs Placebo","2 g/day, Total",0.9%
same,"LDL-C, Change from Baseline, %","2 g/day, Total",−2.5%
same,"LDL-C, End of Treatment, median (IQR)","2 g/day, Total",94 mg/dL
same,"LDL-C, Median % Change From Baseline vs Placebo","2 g/day, Total",3.6%
same,"Non-HDL-C, Change from Baseline, %","2 g/day, Total",0.0%
same,"Non-HDL-C, End of Treatment, median (IQR)","2 g/day, Total",214 mg/dL
same,"Non-HDL-C, Median % Change From Baseline vs Placebo","2 g/day, Total",−8.3%
same,"TG, Change from Baseline, %","2 g/day, Total",−4.3%
same,"TG, End of Treatment, median (IQR)","2 g/day, Total",606 mg/dL
same,"TG, Median % Change From Baseline vs Placebo","2 g/day, Total",−19.1%
same,"hsCRP, Change from Baseline, %","2 g/day, Total",25.1%
same,"hsCRP, End of Treatment, median (IQR)","2 g/day, Total",2.4 (3.20) mg/L
same,"hsCRP, Median % Change From Baseline vs Placebo","2 g/day, Total",−14.5%
same,"Apo B, Change from Baseline, %","4 g/day, No statins",−4.3%
same,"Apo B, End of Treatment, median (IQR)","4 g/day, No statins",123 mg/dL
same,"Apo B, Median % Change From Baseline vs Placebo","4 g/day, No statins",−9.2%
same,"HDL-C, Change from Baseline, %","4 g/day, No statins",0.0%
same,"HDL-C, End of Treatment, median (IQR)","4 g/day, No statins",25 mg/dL
same,"HDL-C, Median % Change From Baseline vs Placebo","4 g/day, No statins",−4.2%
same,"LDL-C, Change from Baseline, %","4 g/day, No statins",−1.5%
same,"LDL-C, End of Treatment, median (IQR)","4 g/day, No statins",92 mg/dL
same,"LDL-C, Median % Change From Baseline vs Placebo","4 g/day, No statins",−2.0%
same,"Non-HDL-C, Change from Baseline, %","4 g/day, No statins",−9.9%
same,"Non-HDL-C, End of Treatment, median (IQR)","4 g/day, No statins",220 mg/dL
same,"Non-HDL-C, Median % Change From Baseline vs Placebo","4 g/day, No statins",−18.5%
same,"TG, Change from Baseline, %","4 g/day, No statins",−26.6%
same,"TG, End of Treatment, median (IQR)","4 g/day, No statins",582 mg/dL
same,"TG, Median % Change From Baseline vs Placebo","4 g/day, No statins",−28.5%
same,"hsCRP, Change from Baseline, %","4 g/day, No statins",0.0%
same,"hsCRP, End of Treatment, median (IQR)","4 g/day, No statins",2.3 (2.30) mg/L
same,"hsCRP, Median % Change From Baseline vs Placebo","4 g/day, No statins",−78.0%
same,"hsCRP, Median % Change From Baseline vs Placebo","4 g/day, No statins, listed as IPE",−27.6%
same,"Apo B, Change from Baseline, %","4 g/day, Statins",−1.6%
same,"Apo B, End of Treatment, median (IQR)","4 g/day, Statins",100 mg/dL
same,"Apo B, Median % Change From Baseline vs Placebo","4 g/day, Statins",−9.0%
same,"HDL-C, Change from Baseline, %","4 g/day, Statins",−5.2%
same,"HDL-C, End of Treatment, median (IQR)","4 g/day, Statins",29 mg/dL
same,"HDL-C, Median % Change From Baseline vs Placebo","4 g/day, Statins",0.3%
same,"LDL-C, Change from Baseline, %","4 g/day, Statins",−11.4%
same,"LDL-C, End of Treatment, median (IQR)","4 g/day, Statins",72.5 mg/dL
same,"LDL-C, Median % Change From Baseline vs Placebo","4 g/day, Statins",−4.3%
same,"Non-HDL-C, Change from Baseline, %","4 g/day, Statins",−7.6%
same,"Non-HDL-C, End of Treatment, median (IQR)","4 g/day, Statins",172 mg/dL
same,"Non-HDL-C, Median % Change From Baseline vs Placebo","4 g/day, Statins",−27.4%
same,"TG, Change from Baseline, %","4 g/day, Statins",−29.1%
same,"TG, End of Treatment, median (IQR)","4 g/day, Statins",457 mg/dL
same,"TG, Median % Change From Baseline vs Placebo","4 g/day, Statins",−62.6%
same,"hsCRP, Change from Baseline, %","4 g/day, Statins",−35.1%
same,"hsCRP, End of Treatment, median (IQR)","4 g/day, Statins",2.7 (3.70) mg/L
same,"hsCRP, Median % Change From Baseline vs Placebo","4 g/day, Statins",−27.6%
same,"hsCRP, Median % Change From Baseline vs Placebo","4 g/day, Statins, listed as IPE",−78.0%
same,"Apo B, Change from Baseline, %","4 g/day, Total",−3.5%
same,"Apo B, End of Treatment, median (IQR)","4 g/day, Total",120 mg/dL
same,"HDL-C, Change from Baseline, %","4 g/day, Total",0.0%
same,"HDL-C, End of Treatment, median (IQR)","4 g/day, Total",26 mg/dL
same,"HDL-C, Median % Change From Baseline vs Placebo","4 g/day, Total",−3.0%
same,"LDL-C, Change from Baseline, %","4 g/day, Total",−4.1%
same,"LDL-C, End of Treatment, median (IQR)","4 g/day, Total",89 mg/dL
same,"Non-HDL-C, Change from Baseline, %","4 g/day, Total",−9.6%
same,"Non-HDL-C, End of Treatment, median (IQR)","4 g/day, Total",207 mg/dL
same,"TG, Change from Baseline, %","4 g/day, Total",−26.8%
same,"TG, End of Treatment, median (IQR)","4 g/day, Total",504 mg/dL
same,"hsCRP, Change from Baseline, %","4 g/day, Total",−2.9%
same,"hsCRP, End of Treatment, median (IQR)","4 g/day, Total",2.4 (2.95) mg/L
same,"Apo B, Median % Change From Baseline vs Placebo","4 g/day, Total, listed as IPE",−9.1%
same,"LDL-C, Median % Change From Baseline vs Placebo","4 g/day, Total, listed as IPE",−3.2%
same,"Non-HDL-C, Median % Change From Baseline vs Placebo","4 g/day, Total, listed as IPE",−19.9%
same,"TG, Median % Change From Baseline vs Placebo","4 g/day, Total, listed as IPE",−35.0%
same,"hsCRP, Median % Change From Baseline vs Placebo","4 g/day, Total, listed as IPE",−40.0%
